Here are results for one molecule from paper PMC9037349, “Elucidation of molecular interactions of theaflavin monogallate with camel milk lactoferrin: detailed spectroscopic and dynamic simulation studies” (RSC Advances, 2021).

The target in the assay is T1, camel milk lactoferrin (Camelus dromedarius, UniProt Q9TUM0).
T1 construct: gene LTF; lactoferrin isolated and purified from camel milk
T1 sequence (Q9TUM0 20-708): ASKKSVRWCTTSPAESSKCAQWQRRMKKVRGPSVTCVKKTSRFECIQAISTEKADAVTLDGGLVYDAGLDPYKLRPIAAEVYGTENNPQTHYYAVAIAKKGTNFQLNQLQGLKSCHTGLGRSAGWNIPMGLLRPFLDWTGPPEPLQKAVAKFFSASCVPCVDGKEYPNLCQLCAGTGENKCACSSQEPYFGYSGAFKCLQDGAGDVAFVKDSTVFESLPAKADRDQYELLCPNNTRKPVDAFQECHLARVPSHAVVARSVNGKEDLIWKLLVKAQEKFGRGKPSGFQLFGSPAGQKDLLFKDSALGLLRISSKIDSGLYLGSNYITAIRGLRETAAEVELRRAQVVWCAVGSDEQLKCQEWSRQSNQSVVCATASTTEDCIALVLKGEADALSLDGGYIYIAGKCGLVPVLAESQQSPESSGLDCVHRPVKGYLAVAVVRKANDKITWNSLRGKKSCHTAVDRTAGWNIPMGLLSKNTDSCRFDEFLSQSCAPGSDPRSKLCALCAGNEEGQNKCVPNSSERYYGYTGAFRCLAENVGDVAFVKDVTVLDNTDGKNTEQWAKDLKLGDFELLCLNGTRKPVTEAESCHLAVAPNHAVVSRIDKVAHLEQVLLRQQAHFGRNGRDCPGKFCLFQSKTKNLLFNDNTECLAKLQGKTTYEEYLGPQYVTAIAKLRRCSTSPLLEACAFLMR
The experiment in a line: intrinsic fluorescence quenching titration (static; modified Stern-Volmer, […] K), supported by FRET, ANS fluorescence and CD. In kind it is binding. The conditions noted are these: read-out: K a × 10^4 (M^-1) (converted).

As for `O=C(O[C@@H]1Cc2c(O)cc(O)cc2O[C@@H]1c1cc(O)c(=O)c2c(O)c(O)cc([C@H]3Oc4cc(O)cc(O)c4C[C@H]3O)c2c1)c1cc(O)c(O)c(O)c1` [theaflavin monogallate], the Kd is 23.4 µM.
